# Test results published in US10494380B2, “Nitrogen-containing tricyclic derivatives having HIV replication inhibitory activity” (priority 2015, dated 2019).
# Like-named read-outs stand apart in the source and are kept apart here.
# Columns and labels:
# HIV = type: cell-based; settings: EC50 in the presence of human serum (25%) versus without human serum, MT-4 cells
# Procedure, shortened: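 HIV-infected MT-4 cells (3×10^4/well, infected 1 h at 37° C) are grown 4 days with compound that was first mixed 1 h with human serum or with medium only. Potency shift is the EC50 with serum divided by the EC50 without serum.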
# [1] = system: sheep red blood cells (RBC); assay: Photohemolysis test (Test Example 13); type: cell-based; settings: 0.0008 to 0.1 w/v %, 10 J/cm2 UV-irradiation (290-400 nm)
# Procedure, shortened: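 Sheep RBC suspension (2.5 v/v %) with compound at 0.0008–0.1 w/v % exposed to 10 J/cm2 UV-A/UV-B (290–400 nm), then centrifuged. Supernatant absorbance at 540 nm gave photohemolysis index (PI) and at 630 nm met-Hb formation. Negative if PI<10% and 630 nm change <0.05; otherwise positive.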
# HIV (HTLV-IIIB strain) = assay: HIV replication inhibition assay (Test Example 1; MT-4 cells, MTT); type: cell-based; settings: MT-4 cells, MTT; for EC50: read-out: EC50; for EC90: read-out: EC90
# Procedure, shortened: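 MT-4 cells (2.5×10^4/well) were infected with HIV HTLV-IIIB (60 pfu) in the presence of compound and cultured 4 days at 37 °C. Cell viability was read by MTT reduction (OD 560/690 nm). EC50 and EC90 are the concentrations inhibiting virus-induced cytotoxicity by 50% and 90%.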
# CYP2C9 = CYP2C9 (Homo sapiens (Human), UniProt P11712); assay: CYP inhibition assay, tolbutamide methyl-hydroxylation (Test Example 4); type: in vitro ADME; settings: pooled human hepatic microsome, 100 μmol/L tolbutamide, 15 minutes, 37° C.
# Experimental: Using commercially available pooled human hepatic microsome, and employing, as markers, 7-ethoxyresorufin O-deethylation (CYP1A2), tolbutamide methyl-hydroxylation (CYP2C9), mephenytoin 4′-hydroxylation (CYP2C19), dextromethorphan O-demethylation (CYP2D6), and terfenadine hydroxylation (CYP3A4) as typical substrate metabolism reactions of human main five CYP enzyme forms (CYP1A2, 2C9, 2C19, 2D6, 3A4) an inhibitory degree of each metabolite production amount by a test compound was assessed.
# The reaction conditions were as follows: substrate, 0.5 μmol/L ethoxyresorufin (CYP1A2), 100 μmol/L tolbutamide (CYP2C9), 50 μmol/L S-mephenytoin (CYP2C19), 5 μmol/L dextromethorphan (CYP2D6), 1 μmol/L terfenedine (CYP3A4); reaction time, 15 minutes; reaction temperature, 37° C.; enzyme, pooled human hepatic microsome 0.2 mg protein/mL; test drug concentration, 1, 5, 10, 20 μmol/L (four points).
# Each five kinds of substrates, human hepatic microsome, and a test drug in 50 mmol/L Hepes buffer as a reaction solution was added to a 96-well plate as the composition ad described above, NADPH, as a coenzyme was added to initiate metabolism reactions as markers and, after the incubation at 37° C. for 15 minutes, a methanol/acetonitrile=1/1 (V/V) solution was added to stop the reaction. After the centrifugation at 3000 rpm for 15 minutes, resorufin (CYP1A2 metabolite) in the supernatant was quantified by a fluorescent multilabel counter and tolbutamide hydroxide (CYP2C9 metabolite), mephenytoin 4′ hydroxide (CYP2C19 metabolite), dextrorphan (CYP2D6 metabolite), and terfenadine alcohol (CYP3A4 metabolite) were quantified by LC/MS/MS.
# CYP3A4 = CYP3A4 (Homo sapiens (Human), UniProt P08684); assay: CYP3A4 (MDZ) MBI test (Test Example 6); settings: pooled human liver microsomes, midazolam 1-hydroxylation, preincubation 0 or 30 min
# [2] = system: T125A mutant virus (HIV-1 NL-432 recombinant molecular clone, IN gene); assay: HIV replication inhibition assay against integrase 124/125 mutant virus (Test Example 2); type: cell-based
# Procedure, shortened: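 EC50 is the compound concentration blocking half of virus-induced cell death, measured by MTT (OD 560 nm, 690 nm reference) after 4 days at 37 °C. Integrase 124/125 mutant NL-432 virus from transfected 293T cells (60 pfu) was added to 2.5×10^4 MT-4 cells with compound.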
# [3] = Human immunodeficiency virus 1, MT4, 96 h, HIV (HTLV-IIIB strain), four days
# [4] = Human immunodeficiency virus 1, MT4, read-out: EC50 against T125A mutant virus, T125A mutant virus (HIV-1 NL-432 IN gene), MT-4 cells, MTT
# [5] = HIV (HTLV-IIIB strain), four days
# [6] = T125A mutant virus (HIV-1 NL-432 IN gene), MT-4 cells, MTT, read-out: EC50 against T125A mutant virus
# CYP2C9, sequence (P11712 whole entry): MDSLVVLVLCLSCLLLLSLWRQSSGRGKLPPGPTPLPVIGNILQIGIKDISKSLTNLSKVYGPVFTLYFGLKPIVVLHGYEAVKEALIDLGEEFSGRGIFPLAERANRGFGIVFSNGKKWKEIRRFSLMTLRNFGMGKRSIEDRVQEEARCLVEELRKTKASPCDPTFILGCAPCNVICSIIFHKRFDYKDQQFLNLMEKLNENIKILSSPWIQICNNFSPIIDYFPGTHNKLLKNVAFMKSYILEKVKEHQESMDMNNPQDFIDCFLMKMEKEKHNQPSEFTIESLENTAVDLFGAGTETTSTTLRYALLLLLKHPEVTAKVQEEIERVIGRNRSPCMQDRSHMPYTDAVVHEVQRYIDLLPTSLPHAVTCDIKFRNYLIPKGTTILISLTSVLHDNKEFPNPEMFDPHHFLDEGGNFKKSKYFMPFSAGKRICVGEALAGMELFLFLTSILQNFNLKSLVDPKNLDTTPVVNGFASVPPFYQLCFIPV
# CYP3A4, sequence (P08684 whole entry): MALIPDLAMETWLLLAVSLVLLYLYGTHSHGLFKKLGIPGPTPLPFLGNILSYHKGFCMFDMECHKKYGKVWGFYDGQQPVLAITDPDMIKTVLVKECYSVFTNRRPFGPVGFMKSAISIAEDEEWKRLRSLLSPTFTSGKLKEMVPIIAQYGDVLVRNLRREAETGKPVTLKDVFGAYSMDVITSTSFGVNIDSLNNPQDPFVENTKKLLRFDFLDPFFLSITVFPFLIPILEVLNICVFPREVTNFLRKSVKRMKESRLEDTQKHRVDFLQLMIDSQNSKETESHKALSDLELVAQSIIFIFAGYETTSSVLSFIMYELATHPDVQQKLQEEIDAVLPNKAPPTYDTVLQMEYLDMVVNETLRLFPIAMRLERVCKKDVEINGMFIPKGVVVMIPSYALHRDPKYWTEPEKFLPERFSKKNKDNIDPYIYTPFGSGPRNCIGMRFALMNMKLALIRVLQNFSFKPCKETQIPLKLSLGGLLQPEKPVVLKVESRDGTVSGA
SMILES,Potency shift value (HIV),"Photohemolysis test, potential of phototoxicity (PI and met-Hb) [1]",EC50 (HIV (HTLV-IIIB strain); [3]),EC90 (HIV (HTLV-IIIB strain); [3]),IC50 (CYP2C9),"CYP3A4 (MDZ) MBI, shifted IC (CYP3A4)","EC50 [2, 4]",EC50 (HIV (HTLV-IIIB strain); [5]),EC90 (HIV (HTLV-IIIB strain); [5]),"EC50 [2, 6]","EC50 (HIV (HTLV-IIIB strain); Human immunodeficiency virus 1, MT4, 96 h, HIV HTLV-IIIB strain, cultured four days)"
Cc1ccc(-c2c([C@H](OC(C)(C)C)C(=O)O)c(C)c3c4c2cc(C)n4CCN3c2ncc(O[C@H]3CCN(C)C3)cn2)cc1 [Compound I-270],3.8,"(−) (negative criteria (−), PI<10% and changes in absorbance at 630 nm<0.05, respectively)",4.5 nM,7.5 nM,> 20000 nM,"(−) (When a shifted IC was 1.0 or less, this was defined as negative)",13 nM,,,,
Cc1ccc(-c2c([C@H](OC(C)(C)C)C(=O)O)c(C)c3c4c2cc(C)n4CCN3c2ncc(CN3CCCCC3)cn2)cc1 [Compound I-308],11,"(−) (negative criteria (−), PI<10% and changes in absorbance at 630 nm<0.05, respectively)",,,> 20000 nM,"(−) (When a shifted IC was 1.0 or less, this was defined as negative)",,1.6 nM,4.8 nM,4.3 nM,
Cc1cnc(N2CCn3c(C)cc4c(-c5ccc(Cl)cc5)c([C@H](OC(C)(C)C)C(=O)O)c(C)c2c43)nc1 [Compound I-190],21,"(−) (negative criteria (−), PI<10% and changes in absorbance at 630 nm<0.05, respectively)",0.83 nM,1.3 nM,> 20000 nM,"(−) (When a shifted IC was 1.0 or less, this was defined as negative)",2.1 nM,,,,
Cc1ccc(-c2c(C(OC(C)(C)C)C(=O)O)c(C)c3c4c2cc(C)n4CCN3CCN(C)C)cc1 (centres unmarked) [Compound I-027],1.4,"(−) (negative criteria (−), PI<10% and changes in absorbance at 630 nm<0.05, respectively)",,,> 20000 nM,"(−) (When a shifted IC was 1.0 or less, this was defined as negative)",,9.9 nM,16 nM,26 nM,
Cc1ccc(-c2c([C@H](OC(C)(C)C)C(=O)O)c(C)c3c4c2cc(C)n4CCN3c2ncc(OC3CCN(C)CC3)cn2)cc1 [Compound I-278],3.6,"(−) (negative criteria (−), PI<10% and changes in absorbance at 630 nm<0.05, respectively)",5.5 nM,11 nM,> 20000 nM,"(−) (When a shifted IC was 1.0 or less, this was defined as negative)",13 nM,,,,
Cc1ccc(-c2c([C@H](OC(C)(C)C)C(=O)O)c(C)c3c4c2cc(C)n4CCN3c2ccc(N3CCCC3=O)nn2)cc1 [Compound I-303],15,"(−) (negative criteria (−), PI<10% and changes in absorbance at 630 nm<0.05, respectively)",,,> 20000 nM,"(−) (When a shifted IC was 1.0 or less, this was defined as negative)",,1.5 nM,4 nM,4.3 nM,
Cc1ccc(-c2c([C@H](OC(C)(C)C)C(=O)O)c(C)c3c4c2cc(C)n4CCN3c2ncc(CCN3CCOCC3)cn2)cc1 [Compound I-309],13,"(−) (negative criteria (−), PI<10% and changes in absorbance at 630 nm<0.05, respectively)",,,> 20000 nM,"(−) (When a shifted IC was 1.0 or less, this was defined as negative)",,2.2 nM,1.5 nM,4.7 nM,
CCOc1cnc(N2CCn3c(C)cc4c(-c5ccc(Cl)cc5)c([C@H](OC(C)(C)C)C(=O)O)c(C)c2c43)nc1 [Compound I-181],17,"(−) (negative criteria (−), PI<10% and changes in absorbance at 630 nm<0.05, respectively)",,2.3 nM,> 20000 nM,"(−) (When a shifted IC was 1.0 or less, this was defined as negative)",3.5 nM,,,,1.4 nM
Cc1ccc(-c2c([C@H](OC(C)(C)C)C(=O)O)c(C)c3c4c2cc(C)n4CCN3c2nc3c(s2)CN(C)CC3)cc1 [Compound I-293],4.8,"(−) (negative criteria (−), PI<10% and changes in absorbance at 630 nm<0.05, respectively)",3.1 nM,5.5 nM,> 20000 nM,"(−) (When a shifted IC was 1.0 or less, this was defined as negative)",9.3 nM,,,,
COc1cnc(N2CCn3c(C)cc4c(-c5ccc(C)cc5)c([C@H](OC(C)(C)C)C(=O)O)c(C)c2c43)nc1 [Compound I-189],22,"(−) (negative criteria (−), PI<10% and changes in absorbance at 630 nm<0.05, respectively)",1.6 nM,3.2 nM,> 20000 nM,"(−) (When a shifted IC was 1.0 or less, this was defined as negative)",3.1 nM,,,,
Cc1ccc(-c2c([C@H](OC(C)(C)C)C(=O)O)c(C)c3c4c2cc(C)n4CCN3c2ncc(OCCCN(C)C)cn2)cc1 [Compound I-267],4,"(−) (negative criteria (−), PI<10% and changes in absorbance at 630 nm<0.05, respectively)",11 nM,18 nM,> 20000 nM,"(−) (When a shifted IC was 1.0 or less, this was defined as negative)",26 nM,,,,
